Reference: US20200131180A1, “POSITIVE ALLOSTERIC MODULATORS OF THE MUSCARINIC ACETYLCHOLINE RECEPTOR M1” (Vanderbilt University, priority 2018, published 2020)

Target: T1, human mAChR M1 (Homo sapiens, UniProt P11229)
T1 sequence (P11229 1-460): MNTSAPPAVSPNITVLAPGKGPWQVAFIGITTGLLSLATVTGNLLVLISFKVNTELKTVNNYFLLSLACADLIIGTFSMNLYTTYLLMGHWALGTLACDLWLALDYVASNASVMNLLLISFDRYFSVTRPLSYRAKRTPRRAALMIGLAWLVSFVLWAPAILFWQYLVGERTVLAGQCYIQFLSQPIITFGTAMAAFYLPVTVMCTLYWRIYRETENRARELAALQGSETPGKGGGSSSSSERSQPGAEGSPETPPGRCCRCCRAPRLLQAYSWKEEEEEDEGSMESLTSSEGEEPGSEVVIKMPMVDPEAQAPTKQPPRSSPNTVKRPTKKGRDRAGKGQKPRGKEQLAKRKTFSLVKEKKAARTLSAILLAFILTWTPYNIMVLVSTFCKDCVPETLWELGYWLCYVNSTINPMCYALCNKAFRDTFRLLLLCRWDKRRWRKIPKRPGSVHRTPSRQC
Assay: mAChR M1 cell-based functional assay (calcium mobilization, PAM activity)
Details: CHO-K1 cells expressing hM1, calcium flux (Fluo-4); for EC50: concentration-dependent increase in the EC20 acetylcholine response; for Emax: potentiation of EC20 acetylcholine response
Description: Chinese hamster ovary (CHO-K1) cells stably expressing rat (r)M1 were purchased from the American Type Culture Collection and cultured according to their indicated protocol. CHO cells stably expressing human (h)M2, hM3, and hM5 were described previously (Levey, et al., 1991); hM1 and hM4 cDNAs were purchased from Missouri S&T cDNA Resource; rM4 cDNA was provided by T. I. Bonner (National Institutes of Health, Bethesda, Md.). rM2 and rM3 were cloned from a rat brain cDNA library and sequence verified. hM1, rM2, rM3, hM4, and rM4 cDNAs were used to stably transfect CHO-K1 cells purchased from the American Type Culture Collection using Lipofectamine 2000. To make stable rM2, hM2, rM3, hM4, and rM4 cell lines for use in calcium mobilization assays, these cells also were stably transfected with a chimeric G-protein (Gqi5) (provided by B. R. Conklin, University of California, San Francisco) using Lipofectamine 2000. rM1, hM1, rM3, hM3, rM5, and hM5 cells were grown in Ham's F-12 medium containing 10% heat-inactivated fetal bovine serum (FBS), 20 mM HEPES, and 50 μg/mL G418 sulfate. rM2-Gqi5, hM2-Gqi5, and hM4-Gqi5 cells were grown in the same medium also containing 500 μg/mL Hygromycin B. Stable rM4-Gqi5 cells were grown in DMEM containing 10% heat-inactivated FBS, 20 mM HEPES, 400 μg/mL G418 sulfate, and 500 μg/mL Hygromycin B.
For high throughput measurement of agonist-evoked increases in intracellular calcium, CHO-K1 cells stably expressing muscarinic receptors were plated in growth medium lacking G418 and hygromycin at 15,000 cells/20 μL/well in Greiner 384-well black-walled, tissue culture (TC)-treated, clear-bottom plates (VWR). Cells were incubated overnight at 37° C. and 5% CO2. The next day, cells were washed using an ELX 405 (BioTek) with four washes (80 μL) of assay buffer then aspirated to 20 μL. Next, 20 μL of 16 μM Fluo-4/acetoxymethyl ester (Invitrogen, Carlsbad, Calif.) prepared as a 2.3 mM stock in DMSO and mixed in a 1:1 ratio with 10% (w/v) Pluronic F-127 and diluted in assay buffer was added to the wells and the cell plates were incubated for 50 min at 37° C. and 5% CO2. Dye was removed by washing with the ELX 405 (four 80 μL washes of assay buffer) then aspirated to 20 μL. Compound master plates were formatted in an 11 point CRC format (1:3 dilutions) in 100% DMSO with a starting concentration of 10 mM using the BRAVO liquid handler (Agilent). Test compound CRCs were then transferred to daughter plates (240 nL) using the Echo acoustic plate reformatter (Labcyte, Sunnyvale, Calif.) and then diluted into assay buffer (40 μL) to a 2× stock using a Thermo Fisher Combi (Thermo Fisher Scientific, Waltham, Mass.).
Calcium flux was measured using the Functional Drug Screening System (FDSS) 6000 (Hamamatsu Corporation, Tokyo, Japan) as an increase in the fluorescent static ratio. Compounds were applied to cells (20 μL, 2×) using the automated system of the FDSS 6000 at 4 s into the 300 s protocol and the data were collected at 1 Hz. At 144 s into the 300s protocol, 10 μL of an EC20 concentration of the muscarinic receptor agonist acetylcholine was added (5×), followed by the addition of 12 μL an EC80 concentration of acetylcholine at the 230 s time point (5×). Agonist activity was analyzed as a concentration-dependent increase in calcium mobilization upon compound addition. Emax values for agonist activity are expressed relative to the maximum for acetylcholine. Positive allosteric modulator activity was analyzed as a concentration-dependent increase in the EC20 acetylcholine response. Antagonist activity was analyzed as a concentration-dependent decrease in the EC80 acetylcholine response. Concentration-response curves were generated using a four-parameter logistical equation in XLfit curve fitting software (IDBS, Bridgewater, N.J.) for Excel (Microsoft, Redmond, Wash.) or Prism (GraphPad Software, Inc., San Diego, Calif.). […]

| EC50 [µM] | Emax [%] | Compound |
| --- | --- | --- |
| 0.729 | 84 | Cn1cc(-c2ccc(Cc3cc(C(=O)N[C@H]4CCCC[C@@H]4O)c4ncnn4c3)cn2)cn1 [compound 13, N-[(1S,2S)-2-hydroxycyclohexyl]-6-[[6-(1-methylpyrazol-4-yl)-3-pyridyl]methyl]-[1,2,4]triazolo[1,5-a]pyridine-8-carboxamide] |
| – | 45 | Cn1cc(-c2ccc(Cc3cc(C(=O)NC4CCOCC4)c4ncnn4c3)cn2)cn1 [compound 14, 6-[[6-(1-methylpyrazol-4-yl)-3-pyridyl]methyl]-N-tetrahydropyran-4-yl-[1,2,4]triazolo[1,5-a]pyridine-8-carboxamide] |
| – | 65 | Cn1cc(-c2ccc(Cc3cc(C(=O)NC4CC5(COC5)C4)c4ncnn4c3)cn2)cn1 [compound 15, 6-[[6-(1-methylpyrazol-4-yl)-3-pyridyl]methyl]-N-(2-oxaspiro[3.3]heptan-6-yl)-[1,2,4]triazolo[1,5-a]pyridine-8-carboxamide] |
| – | 67 | Cn1cc(-c2ccc(Cc3cc(C(=O)N[C@@H]4CC[C@H]4O)c4ncnn4c3)cn2)cn1 [compound 16, N-[(1R,2R)-2-hydroxycyclobutyl]-6-[[6-(1-methylpyrazol-4-yl)-3-pyridyl]methyl]-[1,2,4]triazolo[1,5-a]pyridine-8-carboxamide] |
| 3.77 | 86 | Cn1cc(-c2ccc(Cc3cc(C(=O)N[C@H]4CCC[C@@H]4O)c4ncnn4c3)cn2)cn1 [compound 17, N-[(1S,2S)-2-hydroxycyclopentyl]-6-[[6-(1-methylpyrazol-4-yl)-3-pyridyl]methyl]-[1,2,4]triazolo[1,5-a]pyridine-8-carboxamide] |
| 4.44 | 81 | O=C(N[C@H]1CCOC[C@@H]1O)c1cc(Cc2ccc(-n3cccn3)cc2)cc2ncnn12 [compound 18, N-[(3R,4S)-3-hydroxytetrahydropyran-4-yl]-7-[(4-pyrazol-1-ylphenyl)methyl]-[1,2,4]triazolo[1,5-a]pyridine-5-carboxamide] |
| 1.71 | 74 | O=C(N[C@H]1CCCC[C@@H]1O)c1cc(Cc2ccc(-n3cccn3)cc2)cn2cnnc12 [compound 19, N-[(1S,2S)-2-hydroxycyclohexyl]-6-[(4-pyrazol-1-ylphenyl)methyl]-[1,2,4]triazolo[4,3-a]pyridine-8-carboxamide] |
| 1.19 | 82 | O=C(N[C@H]1CCCC[C@@H]1O)c1cc(Cc2ccc(-n3cccn3)cc2)cc2ncnn12 [compound 20, N-[(1S,2S)-2-hydroxycyclohexyl]-7-[(4-pyrazol-1-ylphenyl)methyl]-[1,2,4]triazolo[1,5-a]pyridine-5-carboxamide] |
| 2.24 | 43 | Cc1cn2cc(Cc3ccc(-c4ccn(C)n4)cc3)cc(C(=O)N[C@H]3CCOC[C@@H]3O)c2n1 [compound 21, N-[(3R,4S)-3-hydroxytetrahydropyran-4-yl]-2-methyl-6-[[4-(1-methylpyrazol-3-yl)phenyl]methyl]imidazo[1,2-a]pyridine-8-carboxamide] |
| 0.61 | 84 | O=C(N[C@H]1CCCC[C@@H]1O)c1cc(Cc2ccc(-n3cccn3)cc2)cn2ccnc12 [compound 22, N-[(1S,2S)-2-hydroxycyclohexyl]-6-[(4-pyrazol-1-ylphenyl)methyl]imidazo[1,2-a]pyridine-8-carboxamide] |
| 0.341 | 82 | O=C(N[C@H]1CCOC[C@@H]1O)c1cc(Cc2ccc(-n3cccn3)cc2)cn2ccnc12 [compound 23, N-[(3R,4S)-3-hydroxytetrahydropyran-4-yl]-6-[(4-pyrazol-1-ylphenyl)methyl]imidazo[1,2-a]pyridine-8-carboxamide] |
| 2.14 | 76 | O=C(N[C@H]1CCC[C@@H]1O)c1cc(Cc2ccc(-n3cccn3)cc2)cn2ccnc12 [compound 24, N-[(1S,2S)-2-hydroxycyclopentyl]-6-[(4-pyrazol-1-ylphenyl)methyl]imidazo[1,2-a]pyridine-8-carboxamide] |
| 0.904 | 83 | Cn1ccc(-c2ccc(Cc3cc(C(=O)N[C@H]4CCCC[C@@H]4O)c4nccn4c3)cn2)n1 [compound 25, N-[(1S,2S)-2-hydroxycyclohexyl]-6-[[6-(1-methylpyrazol-3-yl)-3-pyridyl]methyl]imidazo[1,2-a]pyridine-8-carboxamide] |
| 4.35 | 79 | Cn1ccc(-c2ccc(Cc3cc(C(=O)N[C@H]4CCOC[C@@H]4O)c4nccn4c3)cn2)n1 [compound 26, N-[(3R,4S)-3-hydroxytetrahydropyran-4-yl]-6-[[6-(1-methylpyrazol-3-yl)-3-pyridyl]methyl]imidazo[1,2-a]pyridine-8-carboxamide] |
| 7.98 | 78 | Cn1ccc(-c2ccc(Cc3cc(C(=O)N[C@H]4CCOC[C@@H]4O)c4ncnn4c3)cn2)n1 [compound 27, N-[(3R,4S)-3-hydroxytetrahydropyran-4-yl]-6-[[6-(1-methylpyrazol-3-yl)-3-pyridyl]methyl]-[1,2,4]triazolo[1,5-a]pyridine-8-carboxamide] |
| 1.12 | 85 | Cn1cc(-c2ccc(Cc3cc(C(=O)N[C@H]4CCOC[C@@H]4O)c4ncnn4c3)cc2)cn1 [compound 28, N-[(3R,4S)-3-hydroxytetrahydropyran-4-yl]-6-[[4-(1-methylpyrazol-4-yl)phenyl]methyl]-[1,2,4]triazolo[1,5-a]pyridine-8-carboxamide] |
| 2.55 | 82 | Cc1nc(-c2ccc(Cc3cc(C(=O)N[C@H]4CCOC[C@@H]4O)c4ncnn4c3)cc2)co1 [compound 29, N-[(3R,4S)-3-hydroxytetrahydropyran-4-yl]-6-[[4-(2-methyloxazol-4-yl)phenyl]methyl]-[1,2,4]triazolo[1,5-a]pyridine-8-carboxamide] |
| 1.27 | 85 | O=C(N[C@H]1CCOC[C@@H]1O)c1cc(Cc2ccc(-n3cccn3)cc2)cn2ncnc12 [compound 30, N-[(3R,4S)-3-hydroxytetrahydropyran-4-yl]-6-[(4-pyrazol-1-ylphenyl)methyl]-[1,2,4]triazolo[1,5-a]pyridine-8-carboxamide] |
| 0.739 | 89 | Cn1cc(-c2ccc(Cc3cc(C(=O)N[C@H]4CCCC[C@@H]4O)c4ncnn4c3)cc2)cn1 [compound 31, N-[(1S,2S)-2-hydroxycyclohexyl]-6-[[4-(1-methylpyrazol-4-yl)phenyl]methyl]-[1,2,4]triazolo[1,5-a]pyridine-8-carboxamide] |
| 1.43 | 87 | Cc1nc(-c2ccc(Cc3cc(C(=O)N[C@H]4CCCC[C@@H]4O)c4ncnn4c3)cc2)co1 [compound 32, N-[(1S,2S)-2-hydroxycyclohexyl]-6-[[4-(2-methyloxazol-4-yl)phenyl]methyl]-[1,2,4]triazolo[1,5-a]pyridine-8-carboxamide] |
